# Measurements from patent US9957298B2, “Peptides as oxytocin agonists” (Hoffmann-La Roche Inc., priority 2014, dated 2018).
# Starred links: 1 amine or outer side, 2 acyl side, 3 side chain; linkers in the order of their positions; H or OH if unused. Positions of bridges follow the written chain, without caps; N, C: chain ends. Non-standard residues stand in square brackets, D forms with d. Residues, ends and D or L forms follow the SMILES beside them. Cha = N[C@@H](CC1CCCCC1)C(=O)O; Chg = N[C@H](C(=O)O)C1CCCCC1; Suc = O=C(CCC(=O)[*:2])[*:1]; hLeu = CC(C)CC[C@H](N)C(=O)O; Nle = CCCC[C@H](N)C(=O)O; NcPrGly = O=C(O)CNC1CC1; Nva = CCC[C@H](N)C(=O)O; Dap = NC[C@H](N)C(=O)O; Sar = CNCC(=O)O
# How the values were obtained:
# Format in all cases: cell-based
# [1] = target: T1, human Oxytocin (OTR) receptor (Homo sapiens, UniProt P30559); test: Calcium flux assay (FLIPR), agonist mode, CHO cells expressing human oxytocin receptor; conditions: for EC50: CHO cells, human OTR, calcium flux FLIPR, read-out: hOT EC50; for Emax: CHO, read-out: hOT efficacy (%)
# T1 construct: expressed in transfected cells
# T1 sequence (P30559 1-389): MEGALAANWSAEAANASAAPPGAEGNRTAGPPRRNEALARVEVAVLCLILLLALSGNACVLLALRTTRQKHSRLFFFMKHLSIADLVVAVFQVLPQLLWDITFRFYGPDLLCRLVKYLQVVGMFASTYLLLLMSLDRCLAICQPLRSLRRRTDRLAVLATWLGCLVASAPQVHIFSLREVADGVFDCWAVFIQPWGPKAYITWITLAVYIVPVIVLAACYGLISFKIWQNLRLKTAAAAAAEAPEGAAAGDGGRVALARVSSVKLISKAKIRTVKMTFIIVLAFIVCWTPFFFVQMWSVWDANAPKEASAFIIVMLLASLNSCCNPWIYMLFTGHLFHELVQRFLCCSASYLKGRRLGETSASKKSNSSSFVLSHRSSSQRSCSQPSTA
# Excerpt: (§1) Chines Hamster Ovary (CHO) cells were transfected with expression plasmids encoding either the human V1a, the human Oxytocin (OTR) or the human V2 receptor, the later in combination with the chimeric Gqs5 G protein to redirect the signal to Calcium flux. Stable cells were cloned by limiting dilution to yield monoclonal cell lines expressing either human V1a, human V2+Gqs5 or human OTR receptors and selected based on functional responses detected on a fluorometric imaging plate reader (FLIPR) detecting Calcium flux in the cell after receptor activation. The stable cell lines were grown in F-12 K Nutrient Mixture (Kaighns Modification), containing 10% foetal bovine serum (FBS), 1% penicillin-streptomycin, 1% L-[…], 200 ug/ml Geneticin at 37° C. in a 10% CO2 incubator at 95% humidity.
# (§2) On the afternoon before the assay, cells were plated at a density of 50,000 cells/well into black 96 well plates with clear bottoms to allow cell inspection and fluorescence measurements from the bottom of each well. The density of cells was sufficient to yield a confluent monolayer the next day. Hanks balanced salt solution, without phenol red, containing 20 mM HEPES (pH 7.3) and 2.5 mM probenecid (assay buffer) was prepared fresh for each experiment. Compound dilutions were made using a Beckman Biomek 2000 laboratory automation workstation, in assay buffer containing 1% DMSO. The dye-loading buffer consisted of a final concentration of 2 μM Fluo-4-AM (dissolved in DMSO and pluronic acid) in assay buffer. The existing culture media was removed from the wells and 100 μl of the dye-loading buffer was added to each well and incubated for approximately 60 min at 37° C. in a 5% CO2 incubator at 95% humidity. Once dye-loaded, the cells were washed thoroughly on an Embla cell washer with the assay buffer to remove any unincorporated dye. Exactly 100 μl assay buffer was left in each well.
# (§3) Each 96 well plate containing dye-loaded cells was placed into the FLIPR machine and the laser intensity set to a suitable level to detect low basal fluorescence. To test compounds as agonists, 25 μl diluted compound was added to the plate 10 seconds into the fluorescent measurements and fluorescent response was recorded for 5 minutes. The fluorescence data was normalized to the endogenous full agonist dose-response set at 100% for the maximum response and 0% for the minimum. Each agonist concentration-response curve was constructed using a four parameter logistic equation with Microsoft Excel XLFit as follows: Y=Minimum+((Maximum−Minimum)/(1+10^(LogEC50-X)nH)), where y is the % normalized fluorescence, minimum is the minimum y, maximum is the maximum y, logEC50 is the log10 concentration which produces 50% of the maximum induced fluorescence, x is the log10 of the concentration of the agonist compound and H is the slope of the curve (the Hill Coefficient). The maximum value gives the efficacy of the agonist test compound in percentage. The concentration of agonist that produced a half-maximal response is represented by the EC50 value, the logarithm of which yielded the pEC50 value.
# human V1a receptor = target: T2, human V1a receptor (Homo sapiens, UniProt P37288); test: Calcium flux assay (FLIPR), agonist mode, CHO cells expressing human V1a receptor; conditions: read-out: hV1a EC50
# T2 construct: expressed in transfected cells
# T2 sequence (P37288 whole entry): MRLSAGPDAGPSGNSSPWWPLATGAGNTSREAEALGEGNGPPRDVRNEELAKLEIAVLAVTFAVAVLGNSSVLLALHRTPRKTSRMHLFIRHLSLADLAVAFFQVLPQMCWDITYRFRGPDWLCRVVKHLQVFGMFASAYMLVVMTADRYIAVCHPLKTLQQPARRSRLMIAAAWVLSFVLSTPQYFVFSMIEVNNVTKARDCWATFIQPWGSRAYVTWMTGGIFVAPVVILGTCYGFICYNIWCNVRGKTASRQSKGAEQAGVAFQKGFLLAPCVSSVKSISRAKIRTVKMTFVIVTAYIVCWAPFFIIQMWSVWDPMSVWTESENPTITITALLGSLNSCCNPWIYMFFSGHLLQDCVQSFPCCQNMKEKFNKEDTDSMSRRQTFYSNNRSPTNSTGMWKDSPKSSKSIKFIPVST
# Excerpt: as §1, §2, §3
# human V2 receptor = target: T3, human V2 receptor (Homo sapiens, UniProt P30518); test: Calcium flux assay (FLIPR), agonist mode, CHO cells expressing human V2 receptor + Gqs5; conditions: for EC50: CHO cells, human V2 + chimeric Gqs5, calcium flux FLIPR, read-out: hV2 EC50
# T3 construct: expressed in transfected cells
# T3 sequence (P30518 whole entry): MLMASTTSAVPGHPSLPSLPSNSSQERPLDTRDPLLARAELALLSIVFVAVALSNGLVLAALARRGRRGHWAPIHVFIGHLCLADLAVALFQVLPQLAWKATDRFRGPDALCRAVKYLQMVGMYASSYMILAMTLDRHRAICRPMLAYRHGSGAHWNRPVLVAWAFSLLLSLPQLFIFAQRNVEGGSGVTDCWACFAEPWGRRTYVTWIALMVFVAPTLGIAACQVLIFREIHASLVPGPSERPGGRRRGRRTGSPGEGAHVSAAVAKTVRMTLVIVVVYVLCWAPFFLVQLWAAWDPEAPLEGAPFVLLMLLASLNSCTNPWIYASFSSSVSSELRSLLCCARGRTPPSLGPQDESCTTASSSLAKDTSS
# Excerpt: as §1, §2, §3
# [2] = maximum response normalized to endogenous full agonist = 100%
SMILES,EC50 [1],"Emax [1, 2]",EC50 (human V1a receptor),EC50 (human V2 receptor),hV2 efficacy (%) (human V2 receptor; [2]),"Emax (human V2 receptor; CHO, maximum response normalized to endogenous full agonist = 100%, read-out: hV2 efficacy (%))","hOT efficacy (%) [1, 2]"
CC[C@H](C)[C@@H]1NC(=O)[C@H](Cc2ccc(O)cc2)NC(=O)CCC(=O)NC[C@@H](C(=O)N2CCC[C@H]2C(=O)N[C@@H](CCC(C)C)C(=O)NCC(N)=O)NC(=O)[C@H](CC(N)=O)NC(=O)[C@H](CCC(N)=O)NC1=O [Example 22] (YIQN[Dap]P[hLeu]G-NH2; linker N-5 via Suc),0.8 nM,109%,391 nM,176 nM,106%,,
CC[C@H](C)[C@@H]1NC(=O)[C@H](Cc2ccc(O)cc2)NC(=O)CCC(=O)NC[C@@H](C(=O)N(C)CC(=O)N[C@H](C(=O)NCC(N)=O)C2CCCCC2)NC(=O)[C@H](CC(N)=O)NC(=O)[C@H](CCC(N)=O)NC1=O [Example 24] (YIQN[Dap][Sar][Chg]G-NH2; linker N-5 via Suc),0.5 nM,104%,> 27000 nM,152 nM,120%,,
CCC[C@H](NC(=O)[C@@H]1CCCN1C(=O)[C@@H]1CNC(=O)CCC(=O)N[C@@H](Cc2ccc(O)cc2)C(=O)N[C@@H]([C@@H](C)CC)C(=O)N[C@@H](CCC(N)=O)C(=O)N[C@@H](CC(N)=O)C(=O)N1)C(=O)NCC(N)=O [Example 17] (YIQN[Dap]P[Nva]G-NH2; linker N-5 via Suc),0.6 nM,114%,351 nM,116 nM,116/116%,,
CC[C@H](C)[C@@H]1NC(=O)[C@H](Cc2ccc(O)cc2)NC(=O)CCC(=O)NC[C@@H](C(=O)N(C)CC(=O)N[C@@H](CC2CCCCC2)C(=O)NCC(N)=O)NC(=O)[C@H](CC(N)=O)NC(=O)[C@H](CCC(N)=O)NC1=O [Example 31] (YIQN[Dap][Sar][Cha]G-NH2; linker N-5 via Suc),0.5 nM,107%,> 27000 nM,199 nM,126%,,

# More lines, in order of falling EC50 [1], values ahead:
EC50 [1],"Emax [1, 2]",EC50 (human V1a receptor),EC50 (human V2 receptor),hV2 efficacy (%) (human V2 receptor; [2]),"Emax (human V2 receptor; CHO, maximum response normalized to endogenous full agonist = 100%, read-out: hV2 efficacy (%))","hOT efficacy (%) [1, 2]",SMILES
1 nM,,> 27000 nM,364 nM,104%,,119%,CCCC[C@H](NC(=O)CN(C)C(=O)[C@@H]1CNC(=O)CCC(=O)N[C@@H](Cc2ccc(O)cc2)C(=O)N[C@@H]([C@@H](C)CC)C(=O)N[C@@H](CCC(N)=O)C(=O)N[C@@H](CC(N)=O)C(=O)N1)C(=O)NCC(N)=O [Example 6] (YIQN[Dap][Sar][Nle]G-NH2; linker N-5 via Suc)
0.9 nM,117%,562 nM,174 nM,112%,,,CC[C@H](C)[C@@H]1NC(=O)[C@H](Cc2ccc(O)cc2)NC(=O)CCC(=O)NC[C@@H](C(=O)N2CCC[C@H]2C(=O)N[C@H](C(=O)NCC(N)=O)C2CCCCC2)NC(=O)[C@H](CC(N)=O)NC(=O)[C@H](CCC(N)=O)NC1=O [Example 20] (YIQN[Dap]P[Chg]G-NH2; linker N-5 via Suc)
0.7 nM,111%,> 27000 nM,1130 nM,,123%,,CC[C@H](C)[C@@H]1NC(=O)[C@H](Cc2ccc(O)cc2)NC(=O)CCC(=O)NC[C@@H](C(=O)N(C)CC(=O)N[C@H](C(=O)NCC(N)=O)C(C)C)NC(=O)[C@H](CC(N)=O)NC(=O)[C@H](CCC(N)=O)NC1=O [Example 5] (YIQN[Dap][Sar]VG-NH2; linker N-5 via Suc)
0.38 nM,126%,> 27000 nM,626 nM,146%,,,CC[C@H](C)[C@@H]1NC(=O)[C@H](Cc2ccc(O)cc2)NC(=O)CCC(=O)NC[C@@H](C(=O)N(CC(=O)N[C@@H](CC(C)C)C(=O)NCC(N)=O)C2CC2)NC(=O)[C@H](CC(N)=O)NC(=O)[C@H](CCC(N)=O)NC1=O [Example 38] (YIQN[Dap][NcPrGly]LG-NH2; linker N-5 via Suc)
